Assay results from ChEMBL document CHEMBL1914442, “Metabolism-directed design of oxetane-containing arylsulfonamide derivatives as γ-secretase inhibitors” (J Med Chem, 2011).

Assays:
[1] = Apparent permeability from apical to basolateral side of dog RRCK cells by transwell assay; assay type: ADME, cell-based, Canis lupus familiaris, MDCKII-LE; conditions: MDCK
physchem = conditions: octanol/water, pH 7.4
[2] = Drug uptake in wild-type mouse 129/sve cerebrospinal fluid at 100 mg/kg, sc administered as a single dose measured 1 hr post-dose by LC-MS analysis; assay type: ADME, organism-based; parameters: dose 100 mg/kg, route subcutaneous; conditions: read-out: Drug uptake
[3] = Drug uptake in wild-type mouse 129/sve cerebrospinal fluid at 100 mg/kg, sc administered as a single dose measured 4 hr post-dose by LC-MS analysis; assay type: ADME, organism-based; parameters: dose 100 mg/kg, route subcutaneous; conditions: read-out: Drug uptake
[4] = Oral bioavailability in mouse; assay type: ADME, organism-based; conditions: in vivo
[5] = Oral bioavailability in rat; assay type: ADME, organism-based; conditions: in vivo

Papp A→B [1] | logD (physchem) | concentration at 1 h [2] | concentration at 4 h [3] | bioavailability [4] | bioavailability [5] | SMILES
4.42 ×10⁻⁶ cm/s | – | – | – | – | – | NC(=O)[C@@H](CCC(F)(F)F)N(CC1CCCCC1)S(=O)(=O)c1ccc(Cl)cc1
6.01 ×10⁻⁶ cm/s | 5.15 | – | – | – | – | NC(=O)[C@@H](CCC(F)(F)F)N(CC1CCCC1)S(=O)(=O)c1ccc(Cl)cc1
11.1 ×10⁻⁶ cm/s | – | – | – | – | – | NC(=O)[C@@H](CCC(F)(F)F)N(CC1CCC1)S(=O)(=O)c1ccc(Cl)cc1
13.4 ×10⁻⁶ cm/s | 4.3 | – | – | – | – | NC(=O)[C@@H](CCC(F)(F)F)N(C[C@H]1CCCCO1)S(=O)(=O)c1ccc(Cl)cc1
15.4 ×10⁻⁶ cm/s | 4.3 | – | – | – | – | NC(=O)[C@@H](CCC(F)(F)F)N(C[C@@H]1CCCCO1)S(=O)(=O)c1ccc(Cl)cc1
18.2 ×10⁻⁶ cm/s | 3.6 | – | – | – | – | NC(=O)[C@@H](CCC(F)(F)F)N(C[C@H]1CCCOC1)S(=O)(=O)c1ccc(Cl)cc1
18.4 ×10⁻⁶ cm/s | 3.7 | – | – | – | – | NC(=O)[C@@H](CCC(F)(F)F)N(C[C@@H]1CCCOC1)S(=O)(=O)c1ccc(Cl)cc1
26.3 ×10⁻⁶ cm/s | 3.5 | – | – | – | – | NC(=O)[C@@H](CCC(F)(F)F)N(CC1CCOCC1)S(=O)(=O)c1ccc(Cl)cc1
27.3 ×10⁻⁶ cm/s | 2.75 | – | – | – | – | NC(=O)[C@@H](CCC(F)(F)F)N(C[C@@H]1COCCO1)S(=O)(=O)c1ccc(Cl)cc1
20.6 ×10⁻⁶ cm/s | 2.75 | – | – | – | – | NC(=O)[C@@H](CCC(F)(F)F)N(C[C@H]1COCCO1)S(=O)(=O)c1ccc(Cl)cc1
19.1 ×10⁻⁶ cm/s | 3.6 | – | – | – | – | NC(=O)[C@@H](CCC(F)(F)F)N(C[C@H]1CCCO1)S(=O)(=O)c1ccc(Cl)cc1
22.4 ×10⁻⁶ cm/s | 3.5 | – | – | – | – | NC(=O)[C@@H](CCC(F)(F)F)N(C[C@@H]1CCCO1)S(=O)(=O)c1ccc(Cl)cc1
21.7 ×10⁻⁶ cm/s | 2.8 | – | – | – | – | NC(=O)[C@@H](CCC(F)(F)F)N(C[C@H]1CCOC1)S(=O)(=O)c1ccc(Cl)cc1
20.5 ×10⁻⁶ cm/s | 2.8 | – | – | – | – | NC(=O)[C@@H](CCC(F)(F)F)N(C[C@@H]1CCOC1)S(=O)(=O)c1ccc(Cl)cc1
34.9 ×10⁻⁶ cm/s | 2.6 | 447 nM | 59.6 nM | < 5% | < 5% | NC(=O)[C@@H](CCC(F)(F)F)N(C[C@@H]1CCO1)S(=O)(=O)c1ccc(Cl)cc1
28.7 ×10⁻⁶ cm/s | 2.6 | – | – | – | – | NC(=O)[C@@H](CCC(F)(F)F)N(C[C@H]1CCO1)S(=O)(=O)c1ccc(Cl)cc1
25.4 ×10⁻⁶ cm/s | 2.5 | – | – | < 5% | < 5% | NC(=O)[C@@H](CCC(F)(F)F)N(CC1COC1)S(=O)(=O)c1ccc(Cl)cc1
21.8 ×10⁻⁶ cm/s | – | – | – | – | – | C[C@H]1C[C@@H](CN([C@H](CCC(F)(F)F)C(N)=O)S(=O)(=O)c2ccc(Cl)cc2)O1
21.2 ×10⁻⁶ cm/s | – | – | – | – | – | C[C@@H]1C[C@@H](CN([C@H](CCC(F)(F)F)C(N)=O)S(=O)(=O)c2ccc(Cl)cc2)O1
18.1 ×10⁻⁶ cm/s | 3.8 | – | – | – | – | CC1(C)C[C@H](CN([C@H](CCC(F)(F)F)C(N)=O)S(=O)(=O)c2ccc(Cl)cc2)O1
14.9 ×10⁻⁶ cm/s | 3.8 | – | – | < 5% | < 5% | CC1(C)C[C@@H](CN([C@H](CCC(F)(F)F)C(N)=O)S(=O)(=O)c2ccc(Cl)cc2)O1
22.3 ×10⁻⁶ cm/s | 3.9 | – | – | – | – | CC1(C)CO[C@@H]1CN([C@H](CCC(F)(F)F)C(N)=O)S(=O)(=O)c1ccc(Cl)cc1
26.4 ×10⁻⁶ cm/s | 3.8 | – | – | – | – | CC1(C)CO[C@H]1CN([C@H](CCC(F)(F)F)C(N)=O)S(=O)(=O)c1ccc(Cl)cc1
